Laboratory results published in article PMC6582431 (Chemmedchem, 2018).
pIC50: −log10 of the molar value. Like-named read-outs stand apart in the source and are kept apart here.

Experiments:
FAAH [1] = biological target: T1, FAAH (Rattus norvegicus, UniProt P97612); assay: In vitro FAAH activity in rat brain homogenates/membranes; format: biochemical
T1 sequence (P97612 1-579): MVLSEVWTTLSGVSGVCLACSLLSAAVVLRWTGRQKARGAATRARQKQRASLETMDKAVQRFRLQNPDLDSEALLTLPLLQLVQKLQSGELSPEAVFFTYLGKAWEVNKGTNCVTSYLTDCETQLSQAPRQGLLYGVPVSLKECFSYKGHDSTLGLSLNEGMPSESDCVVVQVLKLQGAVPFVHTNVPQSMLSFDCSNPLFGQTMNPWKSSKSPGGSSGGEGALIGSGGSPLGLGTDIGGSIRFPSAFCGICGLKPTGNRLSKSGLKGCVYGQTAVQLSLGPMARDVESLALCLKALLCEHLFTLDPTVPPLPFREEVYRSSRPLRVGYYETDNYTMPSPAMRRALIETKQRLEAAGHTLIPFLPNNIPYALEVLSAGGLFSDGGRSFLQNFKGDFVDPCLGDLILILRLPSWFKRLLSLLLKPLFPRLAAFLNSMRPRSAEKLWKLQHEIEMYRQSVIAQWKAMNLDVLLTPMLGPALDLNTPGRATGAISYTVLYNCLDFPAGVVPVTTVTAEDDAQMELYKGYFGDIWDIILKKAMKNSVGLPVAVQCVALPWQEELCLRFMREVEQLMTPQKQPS

FAAH [2] = biological target: T2, FAAH (Mus musculus, UniProt O08914); assay: In vivo FAAH inhibition, liver, after oral administration to mice; conditions: for in vivo FAAH inhibitory activity, liver: 0.1 mg kg^−1, mouse, p.o., text b31; for time of maximum inhibitory effect in the liver: 0.1 mg kg^−1 p.o., mice, post-dose
T2 sequence (O08914 1-579): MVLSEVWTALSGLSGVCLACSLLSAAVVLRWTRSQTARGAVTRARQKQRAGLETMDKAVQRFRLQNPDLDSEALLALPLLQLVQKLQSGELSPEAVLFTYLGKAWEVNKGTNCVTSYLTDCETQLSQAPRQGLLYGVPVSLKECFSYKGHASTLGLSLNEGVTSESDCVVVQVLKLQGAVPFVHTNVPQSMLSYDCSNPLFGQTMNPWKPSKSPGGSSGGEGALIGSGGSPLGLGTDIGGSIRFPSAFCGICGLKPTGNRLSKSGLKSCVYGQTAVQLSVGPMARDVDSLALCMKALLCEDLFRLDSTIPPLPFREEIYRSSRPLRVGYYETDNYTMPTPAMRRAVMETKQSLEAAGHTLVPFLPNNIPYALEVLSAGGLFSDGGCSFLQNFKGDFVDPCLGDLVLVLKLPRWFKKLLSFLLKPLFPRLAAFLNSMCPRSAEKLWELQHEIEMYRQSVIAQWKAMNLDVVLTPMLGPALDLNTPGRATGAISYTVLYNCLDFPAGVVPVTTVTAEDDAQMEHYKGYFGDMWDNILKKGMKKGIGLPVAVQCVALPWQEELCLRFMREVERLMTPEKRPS

carboxylesterases (CEs) = assay: CE activity in rat liver microsomes; format: biochemical; conditions: for CEs (10 μM), percent of control: 10 μM in rat liver microsomes; for CEs activity, percent of control: C inhib=10 μM in rat liver microsomes, Table 2
MAGL = biological target: T3, MAGL (Rattus norvegicus, UniProt Q8R431); assay: MAGL activity in rat cerebellum cytosol; format: biochemical; conditions: for MAGL (100 μM), percent of control / MAGL activity, percent of control: C inhib=100 μM in rat cerebellum cytosol; for MAGL activity, percent of control: Table 2
T3 sequence (Q8R431 1-303): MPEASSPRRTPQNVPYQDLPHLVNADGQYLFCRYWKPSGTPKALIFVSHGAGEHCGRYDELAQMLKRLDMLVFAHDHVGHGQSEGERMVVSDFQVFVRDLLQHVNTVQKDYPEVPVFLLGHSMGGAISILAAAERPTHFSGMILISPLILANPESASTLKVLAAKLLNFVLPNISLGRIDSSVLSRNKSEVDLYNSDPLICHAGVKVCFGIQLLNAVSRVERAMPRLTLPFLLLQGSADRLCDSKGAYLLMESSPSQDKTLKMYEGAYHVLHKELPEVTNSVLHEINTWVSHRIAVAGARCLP

[3] = CYP450 metabolic stability, mouse liver microsomes; format: in vitro ADME; conditions: 1 h incubation; for CYP450 metabolic stability, Mouse, percent of remaining: 5 μM in liver microsomes
[4] = CYP450 metabolic stability, rat liver microsomes; format: in vitro ADME; conditions: 5 μM in liver microsomes, 1 h incubation
[5] = CYP450 metabolic stability, dog liver microsomes; format: in vitro ADME; conditions: 5 μM in liver microsomes, 1 h incubation
[6] = CYP450 metabolic stability, primate liver microsomes; format: in vitro ADME; conditions: 5 μM in liver microsomes, 1 h incubation
[7] = CYP450 metabolic stability, human liver microsomes; format: in vitro ADME; conditions: 5 μM in liver microsomes, 1 h incubation
FAAH [8] = biological target: T2, FAAH; assay: In vivo FAAH inhibition, brain, after oral administration to mice; conditions: for in vivo FAAH inhibitory activity, brain: text b31; for time of maximal inhibitory effect in the brain (t max): post-dose; for ED50 cerebral FAAH: 0.001 to 3 mg kg^−1, 8 h post-administration
FAAH [9] = conditions: read-out: FAAH IC50 (in vitro potency); cited from earlier work
[10] = multiple ascending doses up to 20 mg; cited from earlier work
[11] = rat brain homogenates, 15 min pre-incubation, Table 5
[12] = 0.1 mg kg^−1 p.o. in mice, 8 h after administration, Table 5
[13] = mouse, po, 8 h, read-out: ED50 liver FAAH
[14] = 0.1 mg kg^−1 p.o. in mice, 8 h after administration, Table 4
[15] = 30 mg kg^−1 p.o. in mice, 1 h after administration, Table 2

| FAAH activity, percent of control, 100 nM (FAAH [1]; [11]) | in vivo FAAH inhibitory activity, liver (FAAH [2]) | Liver FAAH activity, percent of control (FAAH [2]; [12]) | time of maximum inhibitory effect in the liver (FAAH [2]) | ED50 (FAAH [2]; [13]) | MAGL (100 μM), percent of control (MAGL; Table 5) | CYP450 metabolic stability, Mouse, percent of remaining [3] | CYP450 metabolic stability, Rat, percent of remaining [4] | CYP450 metabolic stability, Dog, percent of remaining [5] | CYP450 metabolic stability, Primate, percent of remaining [6] | CYP450 metabolic stability, Human, percent of remaining [7] | in vivo FAAH inhibitory activity, brain (FAAH [8]; 0.1 mg kg^−1, mouse, p.o.) | Brain FAAH activity, percent of control (FAAH [8]; [12]) | time of maximal inhibitory effect in the brain (t max) (FAAH [8]; 0.1 mg kg^−1 p.o., mice) | central FAAH inhibition maintained up to 48 h post-administration (FAAH [8]; 0.1 mg kg^−1 p.o., mice) | ED50 cerebral FAAH (FAAH [8]; mice, p.o.) | Liver FAAH activity, percent of control (FAAH [2]; [14]) | Liver FAAH activity, percent of control (FAAH [2]; [15]) | Compound | CEs (10 μM), percent of control (carboxylesterases (CEs); Table 5) | CEs (10 μM), percent of control (carboxylesterases (CEs); Table 4) | further results |
| --- | --- | --- | --- | --- | --- | --- | --- | --- | --- | --- | --- | --- | --- | --- | --- | --- | --- | --- | --- | --- | --- |
| 41±7% of control | > 90 % of control | 10±2% of control | 1 h | 0.028 mg/kg | 92±8% of control | 62±0% of remaining | 88±6% of remaining | 54±0% of remaining | 41±3% of remaining | 75±4% of remaining | > 90 % of control | 11±4% of control | 8 h | > 50% | approximately 79 μg kg^−1 | – | – | CN(C(=O)n1cnc(-c2ccccc2)c1)C1CCN(Cc2ccccc2)CC1 [Compound 8 h] | 97±8% of control | – | inhibition at 0.1 mg/kg (FAAH [2]; mouse, po, read-out: peripheral (liver) FAAH inhibition): > 90%; selectivity over CEs (carboxylesterases (CEs); text b31): > 80 % of control; selectivity over MAGL (MAGL; text b31): > 80 % of control; cerebral (brain) FAAH inhibition (FAAH [8]; 0.1 mg kg^−1, mouse, p.o., 8 h post-dose): over 90% |
| – | – | – | – | – | – | 5±0% of remaining | 26±0% of remaining | 1±0% of remaining | 0±0% of remaining | 52±9% of remaining | – | – | – | – | – | 10±4% of control | 2±1% of control | CC1(C)COCN1C(=O)n1nnc2ccccc21 [Compound 11 a] | – | 81±6% of control | pIC50 (FAAH [1]): 7.72; FAAH activity, percent of control, 10 nM (FAAH [1]; 10 nM, rat brain homogenates, 15 min pre-incubation, Table 2): 78±25% of control; FAAH activity, percent of control, 100 nM (FAAH [1]; rat brain homogenates, 15 min pre-incubation, Table 2): 2±1% of control; ED50 (FAAH [2]; mouse, po, 1 h, read-out: ED50 liver (peripheral) FAAH): 0.007 mg/kg; CEs activity, percent of control (carboxylesterases (CEs)): 81±6% of control; MAGL activity, percent of control (MAGL): 90±5% of control; MAGL (100 μM), percent of control (MAGL; Table 4): 90±5% of control; CYPs (50 μM), percentage remaining ([3]; C inhib=50 μM in mouse liver microsomes): 25±2 percentage remaining; Brain FAAH activity, percent of control (FAAH [8]; [14]): 24±7% of control; Brain FAAH activity, percent of control (FAAH [8]; [15]): 0±0% of control; ED50 brain (cerebral) FAAH (FAAH [8]; mouse, p.o., 0.001–3.0 mg kg^−1, 1 h post-dose): 0.061 mg/kg |
| – | – | – | – | – | – | – | – | – | – | – | – | – | – | – | – | 74±20% of control | 6±1% of control | NC(=O)c1cccc(-c2cccc(OC(=O)NC3CCCCC3)c2)c1 [Compound 2, URB597, reference compound] | – | 72±5% of control | inhibition at 30 mg/kg (FAAH [2]; mouse, po, read-out: FAAH inhibition in the liver): > 90%; CEs activity, percent of control (carboxylesterases (CEs)): 72±5% of control; MAGL activity, percent of control (MAGL): 87±4% of control; MAGL (100 μM), percent of control (MAGL; Table 4): 87±4% of control; pIC50 (FAAH [9]): […]; Brain FAAH activity, percent of control (FAAH [8]; [14]): 91±7% of control; Brain FAAH activity, percent of control (FAAH [8]; [15]): 9±2% of control; FAAH inhibition in the brain (FAAH [8]; 30 mg kg^−1 p.o., mice, 1 h post-administration): over 90% |
| 85±11% of control | > 90 % of control | 6±2% of control | 1 h | 0.007 mg/kg | 96±4% of control | 99±2% of remaining | 91±1% of remaining | 94±2% of remaining | 88±1% of remaining | 95±1% of remaining | > 90 % of control | 8±2% of control | 8 h | > 50% | ~0.027 mg/kg | – | – | CN(C(=O)n1cnc(-c2ccc[n+]([O-])c2)c1)C1CCCCC1 [Compound 8 l, 3‐(1‐(Cyclohexyl(methyl)carbamoyl)‐1H‐imidazol‐4‐yl)pyridine 1‐oxide] | 102±5% of control | – | inhibition at 0.1 mg/kg (FAAH [2]; mouse, po, read-out: peripheral inhibition of FAAH sustained over the next 7 h): > 90%; systemic exposure to anandamide [10]: increased in a dose‐dependent manner; maximal inhibitory effect in the brain (FAAH [8]; 0.1 mg kg^−1 p.o., mice, at 8 h post-dose): > 90% |
